From patent publication US12060385B2, “Compounds for RNA capping and uses thereof” (GUANGZHOU HENOVCOM BIOSCIENCE CO., LTD., priority 2022, dated 2024)

What was measured:
mRNA = assay: Capping efficiency of mRNA with different cap analogs by LC-MS; assay type: biochemical; conditions: LC-MS after RNase H cleavage
Description: In a PCR machine, the annealing was performed using the following gradients: • 95° C. for 5 min; 65° C. for 2 min; 55° C. for 2 min; 40° C. for 2 min; 22° C. for 2 min • 5) Pre-treatment of magnetic beads were bound with probes.
100 μL of magnetic beads were placed on a magnetic rack and the preservation solution was removed. 100 μL of 1*BW solution was added, mixed well, and placed on the magnetic rack, and the supernatant was then removed. The washing step was repeated three times. 100 μL of wash A buffer was added, mixed well, and placed on the magnetic rack, and the supernatant was then removed. The washing step was repeated three times. 100 μL of wash B buffer was added, mixed well, and placed on the magnetic rack, and the supernatant was then removed. The washing step was repeated three times. After 120 μL of sample was added, the sample and the magnetic beads solution were incubated for 30 min at room temperature, and they were gently mixed well while incubation. • 6) mRNA was spliced to obtain 5′ end mRNA single stranded sequence and binding with the probe.
20 μL of RNase H (5 U/mL) was added, incubated for 3 hours at 37° C., mixed once every half an hour. 100 μL of 1*BW solution was added, mixed well, and placed on the magnetic rack, and then the supernatant was removed. The washing step was repeated three times. Subsequently, 100 μL of deionized aqueous solution was added, mixed well, and placed on the magnetic rack, and the supernatant was then removed. The washing step was repeated three times. 100 μL of 75% methanol at 80° C. was added, and the mixture was incubated at 80° C. on a heater plate for 3 min, and placed on the magnetic rack, and the supernatant was then pipetted. The sample was dried using an evaporative centrifuge at room temperature for 45 min to 10 μL, and then resuspended in 50 μL of 100 μM EDTA solution in 1% MeOH for LC-MS analysis.
The capping efficiencies of mRNA with different cap analogs were determined by LC-MS, and some compounds of the results were shown in Table 4.

T7 RNA Polymerase = T7 RNA Polymerase (Escherichia phage T7, UniProt P00573); assay type: biochemical; conditions: 20 μL transcription system, Cap1 Analog 4 mM, 37° C. 2 to 3 hours
Description: • 1) A plasmid was linearized and the DNA template was purified. • 2) mRNA was synthesized in vitro with 51 types of capping structures of the present disclosure, or without any cap analogues. CleanCap®AG (3′OMe) (Trilink, N-7413) was applied as positive control group, uncapped mRNA was negative control group, and DNAase/RNase-Free water was a blank control group.
The system was incubated for 2 to 3 hours at 37° C. and digested by TURBO DNase for 15 min LiCl was used to precipitate mRNA for at least 30 min, or overnight, mRNA precipitates were then washed with 75% ethanol. After ethanol was quickly volatilized, mRNA was re-solubilized with RNase-Free water. • 3) The transcribed products were purified and the transcription yields were calculated.

Chain of T7 RNA Polymerase (P00573 whole entry): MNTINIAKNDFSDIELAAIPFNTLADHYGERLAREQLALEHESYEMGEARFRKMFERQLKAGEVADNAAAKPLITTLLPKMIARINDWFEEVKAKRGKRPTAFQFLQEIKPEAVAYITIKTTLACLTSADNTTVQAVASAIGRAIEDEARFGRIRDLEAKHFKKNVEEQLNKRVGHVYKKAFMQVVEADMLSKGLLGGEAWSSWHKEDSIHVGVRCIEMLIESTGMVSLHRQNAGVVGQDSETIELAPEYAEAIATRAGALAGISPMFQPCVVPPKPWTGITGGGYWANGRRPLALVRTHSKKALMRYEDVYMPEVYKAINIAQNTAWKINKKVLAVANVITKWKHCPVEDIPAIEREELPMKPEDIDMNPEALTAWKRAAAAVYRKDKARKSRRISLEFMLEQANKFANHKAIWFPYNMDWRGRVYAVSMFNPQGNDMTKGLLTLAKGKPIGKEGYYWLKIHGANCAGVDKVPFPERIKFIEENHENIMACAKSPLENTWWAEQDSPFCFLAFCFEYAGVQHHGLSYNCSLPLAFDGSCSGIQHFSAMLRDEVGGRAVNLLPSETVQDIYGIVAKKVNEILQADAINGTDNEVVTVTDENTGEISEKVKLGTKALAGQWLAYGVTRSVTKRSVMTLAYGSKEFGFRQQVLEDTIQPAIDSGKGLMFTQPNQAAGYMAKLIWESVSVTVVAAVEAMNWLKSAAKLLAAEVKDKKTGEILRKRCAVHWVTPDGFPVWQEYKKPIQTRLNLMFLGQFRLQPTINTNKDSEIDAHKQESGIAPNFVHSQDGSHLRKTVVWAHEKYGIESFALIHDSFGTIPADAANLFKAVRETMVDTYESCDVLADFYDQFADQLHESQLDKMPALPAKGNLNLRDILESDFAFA

SMILES | Capping efficiency (mRNA) | Final product mass obtained from the 20 μL of mRNA transcription system (T7 RNA Polymerase) [µg]
CO[C@@H]1[C@H](OP(=O)([O-])OC[C@H]2O[C@@H](n3cnc4c(=O)[nH]c(N)nc43)[C@H](O)[C@@H]2O)[C@@H](COP(=O)(O)OP(=O)(O)OP(=O)(O)OC[C@H]2OC(n3c[n+](C)c4c(=O)[nH]c(N)nc43)[C@H](O)[C@@H]2CC(=O)N(C)C)O[C@H]1n1cnc2c(N)ncnc21 (stereo partly shown) [Compound 4] | A (100% > A ≥ 95%) | 78
CO[C@@H]1[C@H](OP(=O)([O-])OC[C@H]2O[C@@H](n3cnc4c(=O)[nH]c(N)nc43)[C@H](O)[C@@H]2O)[C@@H](COP(=O)(O)OP(=O)(O)OP(=O)(O)OC[C@H]2O[C@@H](n3c[n+](C)c4c(=O)[nH]c(N)nc43)[C@H](O)[C@@H]2CCN2CCOCC2)O[C@H]1n1cnc2c(N)ncnc21 [Compound 633] | B (95% > B ≥ 90%) | 100
CNC(=O)C[C@H]1[C@@H](O)[C@H](n2c[n+](C)c3c(=O)[nH]c(N)nc32)O[C@@H]1COP(=O)(O)OP(=O)(O)OP(=O)(O)OC[C@H]1O[C@@H](n2cnc3c(N)ncnc32)[C@H](OC)[C@@H]1OP(=O)(O)OC[C@H]1O[C@@H](n2cnc3c(=O)[nH]c(N)nc32)[C@H](O)[C@@H]1O [Compound 393] | A (100% > A ≥ 95%) | 95
CO[C@@H]1[C@H](OP(=O)([O-])OC[C@H]2O[C@@H](n3cnc4c(=O)[nH]c(N)nc43)[C@H](O)[C@@H]2O)[C@@H](COP(=O)(O)OP(=O)(O)OP(=O)(O)OC[C@H]2O[C@@H](n3c[n+](C)c4c(=O)[nH]c(N)nc43)[C@H](O)[C@@H]2CNC(C)=O)O[C@H]1n1cnc2c(N)ncnc21 [Compound 6] | A (100% > A ≥ 95%) | 103
CO[C@@H]1[C@H](OP(=O)(O)OC[C@H]2O[C@@H](n3cnc4c(=O)[nH]c(N)nc43)[C@H](O)[C@@H]2O)[C@@H](COP(=O)(O)OP(=O)(O)OP(=O)(O)OP(=O)(O)OC[C@H]2O[C@@H](n3c[n+](C)c4c(=O)[nH]c(N)nc43)[C@H](O)[C@@H]2CC(=O)N(C)C)O[C@H]1n1cnc2c(N)ncnc21 [Compound 437] |  | 114
COC[C@H]1[C@@H](O)[C@H](n2c[n+](C)c3c(=O)[nH]c(N)nc32)O[C@@H]1COP(=O)(O)OP(=O)(O)OP(=O)(O)OC[C@H]1O[C@@H](n2cnc3c(N)ncnc32)[C@H](OC)[C@@H]1OP(=O)([O-])OC[C@H]1O[C@@H](n2ccc(=O)[nH]c2=O)[C@H](O)[C@@H]1O [Compound 110] |  | 106
CNC(=O)CC[C@H]1[C@@H](O)[C@H](n2c[n+](C)c3c(=O)[nH]c(N)nc32)O[C@@H]1COP(=O)(O)OP(=O)(O)OP(=O)(O)OC[C@H]1O[C@@H](n2cnc3c(N)ncnc32)[C@H](OC)[C@@H]1OP(=O)(O)OC[C@H]1O[C@@H](n2cnc3c(=O)[nH]c(N)nc32)[C@H](O)[C@@H]1O [Compound 415] |  | 108
CCOC[C@H]1[C@@H](O)[C@H](n2c[n+](C)c3c(=O)[nH]c(N)nc32)O[C@@H]1COP(=O)(O)OP(=O)(O)OP(=O)(O)OC[C@H]1O[C@@H](n2cnc3c(N)ncnc32)[C@H](OC)[C@@H]1OP(=O)(O)OC[C@H]1O[C@@H](n2cnc3c(=O)[nH]c(N)nc32)[C@H](O)[C@@H]1O [Compound 139] | A (100% > A ≥ 95%) | 116
C=CCOC[C@H]1[C@@H](O)[C@H](n2c[n+](C)c3c(=O)[nH]c(N)nc32)O[C@@H]1COP(=O)(O)OP(=O)(O)OP(=O)(O)OC[C@H]1O[C@@H](n2cnc3c(N)ncnc32)[C@H](OC)[C@@H]1OP(=O)(O)OC[C@H]1O[C@@H](n2cnc3c(=O)[nH]c(N)nc32)[C@H](O)[C@@H]1O [Compound 33] |  | 103
COC(=O)NC[C@H]1[C@@H](O)[C@H](n2c[n+](C)c3c(=O)[nH]c(N)nc32)O[C@@H]1COP(=O)(O)OP(=O)(O)OP(=O)(O)OC[C@H]1O[C@@H](n2cnc3c(N)ncnc32)[C@H](OC)[C@@H]1OP(=O)(O)OC[C@H]1O[C@@H](n2cnc3c(=O)[nH]c(N)nc32)[C@H](O)[C@@H]1O [Compound 323] |  | 114
COC[C@H]1[C@@H](O)[C@H](n2c[n+](C)c3c(=O)[nH]c(NC(C)C)nc32)O[C@@H]1COP(=O)(O)OP(=O)(O)OP(=O)(O)OC[C@H]1O[C@@H](n2cnc3c(N)ncnc32)[C@H](OC)[C@@H]1OP(=O)([O-])OC[C@H]1O[C@@H](n2cnc3c(=O)[nH]c(N)nc32)[C@H](O)[C@@H]1O [Compound 219] |  | 101
CNC(=O)C[C@H]1[C@@H](OC)[C@H](n2c[n+](C)c3c(=O)[nH]c(N)nc32)O[C@@H]1COP(=O)(O)OP(=O)(O)OP(=O)(O)OC[C@H]1O[C@@H](n2cnc3c(N)ncnc32)[C@H](OC)[C@@H]1OP(=O)(O)OC[C@H]1O[C@@H](n2cnc3c(=O)[nH]c(N)nc32)[C@H](O)[C@@H]1O [Compound 645] |  | 116
CCCOCC[C@H]1[C@@H](O)[C@H](n2c[n+](C)c3c(=O)[nH]c(N)nc32)O[C@@H]1COP(=O)(O)OP(=O)(O)OP(=O)(O)OC[C@H]1O[C@@H](n2cnc3c(N)ncnc32)[C@H](OC)[C@@H]1OP(=O)(O)OC[C@H]1O[C@@H](n2cnc3c(=O)[nH]c(N)nc32)[C@H](O)[C@@H]1O [Compound 163] |  | 102
CO[C@@H]1[C@H](OP(=O)([O-])OC[C@H]2O[C@@H](n3ccc(=O)[nH]c3=O)[C@H](O)[C@@H]2O)[C@@H](COP(=O)(O)OP(=O)(O)OP(=O)(O)OC[C@H]2OC(n3c[n+](C)c4c(=O)[nH]c(N)nc43)[C@H](O)[C@@H]2CNC(C)=O)O[C@H]1n1cnc2c(N)ncnc21 (stereo partly shown) [Compound 118] |  | 86
COC[C@H]1[C@@H](OC)[C@H](n2c[n+](C)c3c(=O)[nH]c(N)nc32)O[C@@H]1COP(=O)(O)OP(=O)(O)OP(=O)(O)OC[C@H]1O[C@@H](n2cnc3c(N)ncnc32)[C@H](OC)[C@@H]1OP(=O)(O)OC[C@H]1O[C@@H](n2cnc3c(=O)[nH]c(N)nc32)[C@H](O)[C@@H]1O [Compound 637] |  | 88
COC[C@H]1[C@@H](O)[C@H](n2c[n+](Cc3ccccc3)c3c(=O)[nH]c(N)nc32)O[C@@H]1COP(=O)(O)OP(=O)(O)OP(=O)(O)OC[C@H]1O[C@@H](n2cnc3c(N)ncnc32)[C@H](OC)[C@@H]1OP(=O)([O-])OC[C@H]1O[C@@H](n2cnc3c(=O)[nH]c(N)nc32)[C@H](O)[C@@H]1O [Compound 215] |  | 95
CCCCC(=O)NC[C@H]1[C@@H](O)[C@H](n2c[n+](C)c3c(=O)[nH]c(N)nc32)O[C@@H]1COP(=O)(O)OP(=O)(O)OP(=O)(O)OC[C@H]1O[C@@H](n2cnc3c(N)ncnc32)[C@H](OC)[C@@H]1OP(=O)(O)OC[C@H]1O[C@@H](n2cnc3c(=O)[nH]c(N)nc32)[C@H](O)[C@@H]1O [Compound 305] |  | 92
CO[C@@H]1[C@H](OP(=O)(O)OC[C@H]2O[C@@H](n3cnc4c(=O)[nH]c(N)nc43)[C@H](O)[C@@H]2O)[C@@H](COP(=O)(O)OP(=O)(O)OP(=O)(O)OC[C@H]2O[C@@H](n3c[n+](C)c4c(=O)[nH]c(N)nc43)[C@H](O)[C@@H]2CCNC(C)=O)O[C@H]1n1cnc2c(N)ncnc21 [Compound 319] |  | 102
COCCOC[C@H]1[C@@H](O)[C@H](n2c[n+](C)c3c(=O)[nH]c(N)nc32)O[C@@H]1COP(=O)(O)OP(=O)(O)OP(=O)(O)OC[C@H]1O[C@@H](n2cnc3c(N)ncnc32)[C@H](OC)[C@@H]1OP(=O)(O)OC[C@H]1O[C@@H](n2cnc3c(=O)[nH]c(N)nc32)[C@H](O)[C@@H]1O [Compound 141] | A (100% > A ≥ 95%) | 84
